The record followed here is patent publication US20220008373A1 (priority 2020, published 2022).

Structures are written as SMILES. Entries after “also recorded” stand apart in the source; their conditions may differ.

The assay relates to pseudovirus carrying the Spike protein of SARS-CoV-2. It counts as cell-based.

For the compound `CN1CCN(c2ccc(CNC(=O)c3ccno3)cc2)CC1` [SSAA09E2], the “inhibition of pseudovirus infection (attachment and entry)” value is given as “dose-dependent inhibition of pseudovirus infection; also recorded: effective at blocking infection”.
The same measure for `CC(C)C[C@H](N[C@@H](Cc1cncn1Cc1cc(Cl)cc(Cl)c1)C(=O)O)C(=O)O` [MLN-4760]: “No inhibition of viral infection; also recorded: no ability to block the entrance to the pseudovirus”.
